Assay results taken from patent US20070099887A1, “Photodynamic therapy for the treatment of prostatic conditions” (priority 2003, published 2007).

Test system: prostate
Experiment: Photodynamic therapy of the canine prostate after intraprostatic injection of QLT0074 and transurethral 690 nm light
Format: in vivo, dogs
Procedure: Eight mature, intact, mixed-breed dogs were premedicated with butorphanol (0.4 mg per kilogram of body weight), acepromazine (0.1 mg/kg), and atropine (0.4 mg/kg), all given by intramuscular injection. Anesthesia was induced with intravenous thiopental sodium (8 mg per 0.4536 kilograms of body weight) and maintained with inhaled isoflurane and oxygen (dosage as required for anesthetic effect). QLT0074 for injection (A-EA6 in U.S. Pat. No. 5,929,105) was reconstituted with Water for Injection to give a stock concentration of 2.0 mg/ml and then diluted with 5% Dextrose in water to a concentration 0.2 mg/ml. Injections of the drug were then delivered to the prostate using a commercially available transurethral injection device (InjecTx™, San Jose, Calif., USA). Two injections of 0.5 ml were given to each left lobe of the prostate and 2 injections of 1.0 ml were given to each right lobe of the prostate. The activation-energy delivery device used comprised: • a cylindrical fibre optic with a 200 μm diameter core, a 25 mm long diffuser, and a power rating of 175 mW/cm (maximum power load, 437.5 mW), • a reflective-cap fibre-centering balloon catheter with a 20 mm treatment window supplied with a guidewire for positioning the device in the urethra, and • a 3 W 690 nm red-light diode laser (AOC, South Plainfield, N.J., USA). The treatment assembly was positioned in the urethra using ultrasonic guidance. Ultrasound was also used to position the needles for four […] intraprostatic injections (two per lobe separated by longitudinally by 1 cm). Each injection was at a depth of between 8 and 12 mm into the prostate. The activation energy was delivered 15 minutes after the last injection. A dose of either 25 J/cm^2, 50 J/cm^2, or 100 J/cm^2 was delivered. […] After seven days the dogs were euthanased and the prostates were harvested.

[1] = prostates harvested after seven days, QLT0074 0.2 mg/ml intraprostatic, injection depth 8-12 mm, 25, 50 or 100 J/cm^2

SMILES: C=Cc1c(C)c2cc3nc(cc4[nH]c(cc5nc(cc1[nH]2)C(C)=C5CCC(=O)OCCO)c(CCC(=O)OCCO)c4C)[C@@]1(C)C3=CC=C(C(=O)OC)[C@H]1C(=O)OC [QLT0074, Lemuteporfin]
- Bowel, bladder, and prostate sizes (dogs euthanased after seven days, QLT0074 0.2 mg/ml intraprostatic, 25, 50 or 100 J/cm^2): within normal ranges
- Clinical appearance of the dogs during observation (mature intact mixed-breed dogs, QLT0074 0.2 mg/ml, 2 x 0.5 ml left lobe and 2 x 1.0 ml right lobe, 690 nm light 25, 50 or 100 J/cm^2 15 minutes after last injection, observed for one week): clinically normal
- PDT-associated damage in the urethra [1]: no significant PDT-associated damage
- PDT-associated tissue damage in the target tissue (prostates) [1]: evidence of PDT-associated tissue damage in the target tissue
